Target: Mitogen-activated protein kinase 1 (Homo sapiens) (UniProt P28482)
Test: P-MAPK1 protein lowering, cellular counter-screen – SW620 cells, chemiluminescent western blot, powder samples, counter-screen for KLF5 inhibitor project, late-stage follow-up (AID 588668)
Settings: phospho-ERK1/2 western blot, 24 h, at 10 µM

Mitogen-activated protein kinase 1 (Homo sapiens), sequence (P28482 whole entry, looked up): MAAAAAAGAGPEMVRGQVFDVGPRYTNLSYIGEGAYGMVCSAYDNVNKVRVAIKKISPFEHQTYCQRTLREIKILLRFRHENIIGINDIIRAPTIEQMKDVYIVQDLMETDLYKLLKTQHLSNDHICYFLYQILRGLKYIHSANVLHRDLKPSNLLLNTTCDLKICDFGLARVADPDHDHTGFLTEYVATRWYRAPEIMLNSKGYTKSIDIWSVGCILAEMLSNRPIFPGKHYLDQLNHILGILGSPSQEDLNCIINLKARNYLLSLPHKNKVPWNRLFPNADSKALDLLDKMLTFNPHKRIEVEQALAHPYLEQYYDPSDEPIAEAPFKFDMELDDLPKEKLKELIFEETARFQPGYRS

| phospho-ERK1/2 inhibition (% vs DMSO), stronger effect = higher value | SMILES |
| --- | --- |
| 31.3% | CN(C(=O)CNC(=O)/C=C/c1cccc(Cl)c1)C1CCS(=O)(=O)C1 (stereo not drawn) |
| 35.6% | CN(C(=O)COC(=O)/C=C/c1cccc([N+](=O)[O-])c1)C1CCS(=O)(=O)C1 (stereo not drawn) |
| 48.2% | CN(C(=O)CNC(=O)/C=C/c1cccc(Cl)c1)C1CCS(=O)(=O)CC1 |

— PubChem BioAssay AID588668 (The Scripps Research Institute Molecular Screening Center, 2011)
